For 8 compounds, EC50 results are on record in US10519115B2, “Antidiabetic tricyclic compounds” (Merck Sharp & Dohme Corp., priority 2013, dated 2019).

Assay [1] addresses T1, Human GPR40 (Homo sapiens, UniProt O14842). As to the kind of experiment: Inositol Phosphate Turnover Assay 1 (HEK cells stably expressing human GPR40). The format is cell-based. Also noted: expressed in transfected cells; host or cells: HEK cells stably expressing the aequorin reporter. To be noted: HEK cells stably expressing human GPR40, 96-well, 3H-inositol; read-out: Human GPR40 IP1 Assay 1, EC50. The protocol:
(§1) Human and mouse GPR40 stable cell-lines were generated in CHO cells stably expressing NFAT BLA (Beta-lactamase). A human GPR40 stable cell-line was generated in HEK cells stably expressing the aequorin expressing reporter. The expression plasmids were transfected using lipofectamine (Life Technologies) following manufacturer's instructions. Stable cell-lines were generated following drug selection.
The assay was performed in 96-well format. HEK cells stably expressing human GPR40 were plated to be 60-80% confluent within 72 h. After 72 h, the plates were aspirated and the cells washed with inositol-free DMEM (ICN). The wash media was replaced with 150 μL of 3H-inositol labeling media (inositol-free media containing 0.4% human albumin or 0.4% mouse albumin, 1× pen/strep antibiotics, glutamine, 25 mM HEPES to which was added 3H-myo-inositol NEN #NET114A 1 mCi/mL, 25 Ci/mmol diluted 1:150 in loading media with a final specific radioactivity of 1 μCi/150 μL). Alternatively, the human and mouse albumin can be added after the overnight labeling step before the addition of LiCl.
The assay was typically run the next day after 18 h labeling. On the day of the assay, 5 μL of 300 mM LiCl was added to all wells and incubated at 37 degrees for 20 min. 0.75 μL of 200× compounds were added and incubated with the cells for 60 min at 37 degrees. The media was then aspirated off and the assay terminated with the addition of 60 μL 10 mM formic acid. The cells were lysed for 60 min at room temperature. 15-30 μL of lysate was mixed with 70 μL/1 mg YSi SPA beads (Amersham) in clear bottom Isoplates. The plates were shaken for 2 h at room temperature. Beads were allowed to settle and the plates were counted in the Wallac Microbeta.

The target in assay [2] is T1, Human GPR40. As to the kind of experiment: FLIPR assay (agonist-induced calcium mobilization, GPR40/CHO NFAT BLA cells). In kind it is cell-based. More on the design: expressed in transfected cells. On the procedure: as §1
FLIPR (Fluorimetric Imaging Plate Reader, Molecular Devices) assays were performed to measure agonist-induced calcium mobilization of the stable clones. For the FLIPR assay, one day before assay, GPR40/CHO NFAT BLA cells were seeded into black-wall-clear-bottom 384-well plates (Costar) at 1.4×10e4 cells/20 μL medium/well. The cells were incubated with 20 μl/well of the assay buffer (HBSS, 0.1% BSA, 20 mM HEPES, 2.5 mM probenecid, pH 7.4) containing 8 μM fluo-4, AM, 0.08% pluronic acid at room temperature for 100 minutes. Fluorescence output was measured using FLIPR. Compounds were dissolved in DMSO and diluted to desired concentrations with assay buffer. 13.3 μL/well of compound solution was added.
On the technique in general: Calcium assays in cells follow changes in intracellular calcium, usually with a dye or a luminescent sensor.

The structures appear in SMILES notation.

T1 sequence (O14842 whole entry): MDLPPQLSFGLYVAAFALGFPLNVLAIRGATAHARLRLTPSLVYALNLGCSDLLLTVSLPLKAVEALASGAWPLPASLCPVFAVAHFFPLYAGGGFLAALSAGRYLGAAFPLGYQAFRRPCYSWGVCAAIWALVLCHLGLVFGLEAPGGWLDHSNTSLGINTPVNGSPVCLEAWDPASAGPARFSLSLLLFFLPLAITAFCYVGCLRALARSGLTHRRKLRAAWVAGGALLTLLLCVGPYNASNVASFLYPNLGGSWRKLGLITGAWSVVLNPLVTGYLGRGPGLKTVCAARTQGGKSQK

For `CS(=O)(=O)N1CC2(CN(c3ccc(-c4cc(COc5cc6c(cn5)[C@H]5[C@@H](C6)[C@@H]5C(=O)O)c(F)cc4C(F)(F)F)c(F)c3)C2)C1` [Compound-4, (5aR,6S,6aS)-3-((2′,4-difluoro-4′-(6-(methylsulfonyl)-2,6-diazaspiro[3,3]heptan-2-yl)-6-(trifluoromethyl)-[1,1′-biphenyl]-3-yl)methoxy)-5,5a,6,6a-tetrahydrocyclopropa[4,5]-cyclopenta[1,2-c]pyridine-6-carboxylic acid], the EC50 in assay [1] stood at 19 nM; in assay [2], 10 nM.
For `CS(=O)(=O)N1CCC(c2ccc(-c3cc(COc4cc5c(cn4)[C@H]4[C@@H](C5)[C@@H]4C(=O)O)c(F)cc3C(F)(F)F)cc2)CC1` [Compound-5, (5aR,6S,6aS)-3-((4-fluoro-4′-(1-(methylsulfonyl)piperidin-4-yl)-6-(trifluoromethyl)-[1,1′-biphenyl]-3-yl)methoxy)-5,5a,6,6a-tetrahydrocyclopropa[4,5]cyclopenta[1,2-c]pyridine-6-carboxylic acid] the same measures were 13 nM and 4.2 nM.
For `O=C(O)[C@H]1[C@@H]2Cc3cc(OCc4cc(-c5ccc(C6CCN(S(=O)(=O)C7CC7)CC6)cc5)c(C(F)(F)F)cc4F)ncc3[C@@H]21` [Compound-6, (5aR,6S,6aS)-3-((4′-(1-(cyclopropylsulfonyl)piperidin-4-yl)-4-fluoro-6-(trifluoromethyl)-[1,1′-biphenyl]-3-yl)methoxy)-5,5a,6,6a-tetrahydrocyclopropa[4,5]cyclopenta[1,2-c]pyridine-6-carboxylic acid] the same measures were 47 nM and 4.2 nM.
For `Cn1nnc(-c2ccc(-c3cc(COc4cc5c(cn4)[C@H]4[C@@H](C5)[C@@H]4C(=O)O)c(F)cc3C(F)(F)F)c(F)c2)n1` [Compound-7, (5aR,6S,6aS)-3-((2′,4-difluoro-4′-(2-methyl-2H-tetrazol-5-yl)-6-(trifluoromethyl)-[1,1′-biphenyl]-3-yl)methoxy)-5,5a,6,6a-tetrahydrocyclopropa[4,5]cyclopenta[1,2-c]pyridine-6-carboxylic acid] the same measures were 3.4 nM and 6.7 nM.
On to `O=C(O)[C@H]1[C@@H]2Cc3cc(OCc4cc(-c5ccc(-c6ccc(Cl)cc6F)cc5F)c(C(F)(F)F)cc4F)ncc3[C@@H]21` [Compound-8, (5aR,6S,6aS)-3-((4″-chloro-2′,2″,4-trifluoro-6-(trifluoromethyl)-[1,1′:4′,1″-terphenyl]-3-yl)methoxy)-5,5a,6,6a-tetrahydrocyclopropa[4,5]cyclopenta[1,2-c]pyridine-6-carboxylic acid], for which the results for the EC50 in assay [1] and in assay [2] were 63 nM and 12 nM, respectively.
For `CC1(O)CCN(c2ccc(-c3cc(COc4cc5c(cn4)[C@H]4[C@@H](C5)[C@@H]4C(=O)O)c(F)cc3C(F)(F)F)c(F)c2)CC1` [Compound-11, (5aR,6S,6aS)-3-((2′,4-difluoro-4′-(4-hydroxy-4-methylpiperidin-1-yl)-6-(trifluoromethyl)-[1,1′-biphenyl]-3-yl)methoxy)-5,5a,6,6a-tetrahydrocyclopropa[4,5]cyclopenta[1,2-c]pyridine-6-carboxylic acid] the same measures were 6.8 nM and 5.6 nM.
For `CC(C)(O)C1CCN(c2ccc(-c3cc(COc4cc5c(cn4)[C@H]4[C@@H](C5)[C@@H]4C(=O)O)c(F)cc3C(F)(F)F)c(F)c2)CC1` [Compound-12, (5aR,6S,6aS)-3-((2′,4-difluoro-4′-(4-(2-hydroxypropan-2-yl)piperidin-1-yl)-6-(trifluoromethyl)-[1,1′-biphenyl]-3-yl)methoxy)-5,5a,6,6a-tetrahydrocyclopropa[4,5]cyclopenta[1,2-c]-pyridine-6-carboxylic acid] the same measures were 20 nM and 6.1 nM.
For `CC(C)(O)Cn1cc2c(n1)CN(c1ccc(-c3cc(COc4cc5c(cn4)[C@H]4[C@@H](C5)[C@@H]4C(=O)O)c(F)cc3C(F)(F)F)c(F)c1)C2` [Compound-13, (5aR,6S,6aS)-3-((2′,4-difluoro-4′-(2-(2-hydroxy-2-methylpropyl)pyrrolo[3,4-c]pyrazol-5(2H,4H,6H)-yl)-6-(trifluoromethyl)-[1,1′-biphenyl]-3-yl)methoxy)-5,5a,6,6a-tetrahydrocyclo-propa[4,5]cyclopenta[1,2-c]pyridine-6-carboxylic acid] the same measures were 15 nM and 6.7 nM.

As usually defined, the EC50 is the concentration that produces a half-maximal response.
